Laboratory results as given in ChEMBL document CHEMBL1151717, “In vivo active aldosterone synthase inhibitors with improved selectivity: lead optimization providing a series of pyridine substituted 3,4-dihydro-1H-quinolin-2-one derivatives” (J Med Chem, 2008).

Key:
CYP17 = biological target: T1, CYP17 (Homo sapiens, UniProt P05093); assay: in vitro; conditions: human CYP17 expressed in Escherichia coli
T1 sequence (P05093 whole entry): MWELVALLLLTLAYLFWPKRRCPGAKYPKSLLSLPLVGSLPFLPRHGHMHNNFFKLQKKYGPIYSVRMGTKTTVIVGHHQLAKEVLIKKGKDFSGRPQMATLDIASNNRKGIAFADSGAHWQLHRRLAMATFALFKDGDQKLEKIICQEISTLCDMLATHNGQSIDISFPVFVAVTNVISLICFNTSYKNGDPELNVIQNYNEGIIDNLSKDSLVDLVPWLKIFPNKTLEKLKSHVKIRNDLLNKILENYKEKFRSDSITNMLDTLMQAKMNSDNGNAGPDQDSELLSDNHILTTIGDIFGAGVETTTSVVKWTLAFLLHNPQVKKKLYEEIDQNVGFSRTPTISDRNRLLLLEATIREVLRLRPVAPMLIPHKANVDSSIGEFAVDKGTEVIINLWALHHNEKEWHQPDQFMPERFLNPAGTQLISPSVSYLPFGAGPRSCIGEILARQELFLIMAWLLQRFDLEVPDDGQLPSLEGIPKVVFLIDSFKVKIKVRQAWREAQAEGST
Description: Inhibition of human CYP17 expressed in Escherichia coli at 2.5 uM

Aromatase = biological target: T2, Aromatase (Homo sapiens, UniProt P11511); assay: Inhibition of human placental CYP19; type: functional
T2 sequence (P11511 whole entry): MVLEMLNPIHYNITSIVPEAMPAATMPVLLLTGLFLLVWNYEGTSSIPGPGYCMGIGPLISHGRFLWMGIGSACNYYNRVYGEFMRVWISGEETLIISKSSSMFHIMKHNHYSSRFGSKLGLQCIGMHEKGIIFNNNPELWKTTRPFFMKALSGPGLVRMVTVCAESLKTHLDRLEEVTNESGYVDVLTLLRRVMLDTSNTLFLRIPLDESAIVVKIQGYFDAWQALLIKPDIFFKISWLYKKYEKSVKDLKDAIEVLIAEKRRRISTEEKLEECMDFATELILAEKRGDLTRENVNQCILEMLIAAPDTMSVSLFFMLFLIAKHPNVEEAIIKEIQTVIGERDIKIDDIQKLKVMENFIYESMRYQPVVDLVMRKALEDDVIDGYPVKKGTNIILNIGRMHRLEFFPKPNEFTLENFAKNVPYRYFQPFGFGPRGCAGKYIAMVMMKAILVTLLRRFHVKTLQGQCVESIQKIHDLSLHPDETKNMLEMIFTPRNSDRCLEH

[1] = Cmax in Wistar rat at 5 mg/kg, po by cassette dosing; type: ADME, organism-based; parameters: dose 5 mg/kg, route oral; conditions: in vivo
Cytochrome P450 2C9 = Cytochrome P450 2C9 (Homo sapiens, UniProt P11712); assay: Inhibition of human recombinant CYP2C9 expressed in baculovirus-infected insect microsomes; type: ADME, Microsome
Cytochrome P450 2C9, sequence (P11712 whole entry): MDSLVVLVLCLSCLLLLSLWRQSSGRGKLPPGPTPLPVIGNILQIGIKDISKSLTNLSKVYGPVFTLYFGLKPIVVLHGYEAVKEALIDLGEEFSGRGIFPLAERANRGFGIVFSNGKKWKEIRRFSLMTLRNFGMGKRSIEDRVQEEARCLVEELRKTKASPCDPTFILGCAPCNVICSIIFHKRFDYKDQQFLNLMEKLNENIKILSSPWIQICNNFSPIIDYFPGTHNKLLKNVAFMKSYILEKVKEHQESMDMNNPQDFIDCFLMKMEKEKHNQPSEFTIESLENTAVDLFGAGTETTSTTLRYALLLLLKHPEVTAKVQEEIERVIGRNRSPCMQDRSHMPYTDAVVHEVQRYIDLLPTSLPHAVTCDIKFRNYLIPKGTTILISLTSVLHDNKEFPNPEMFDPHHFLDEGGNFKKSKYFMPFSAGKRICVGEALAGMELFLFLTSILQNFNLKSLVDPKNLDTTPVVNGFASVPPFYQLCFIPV

Cytochrome P450 1A2 = biological target: T3, Cytochrome P450 1A2 (Homo sapiens, UniProt P05177)
T3 sequence (P05177 whole entry): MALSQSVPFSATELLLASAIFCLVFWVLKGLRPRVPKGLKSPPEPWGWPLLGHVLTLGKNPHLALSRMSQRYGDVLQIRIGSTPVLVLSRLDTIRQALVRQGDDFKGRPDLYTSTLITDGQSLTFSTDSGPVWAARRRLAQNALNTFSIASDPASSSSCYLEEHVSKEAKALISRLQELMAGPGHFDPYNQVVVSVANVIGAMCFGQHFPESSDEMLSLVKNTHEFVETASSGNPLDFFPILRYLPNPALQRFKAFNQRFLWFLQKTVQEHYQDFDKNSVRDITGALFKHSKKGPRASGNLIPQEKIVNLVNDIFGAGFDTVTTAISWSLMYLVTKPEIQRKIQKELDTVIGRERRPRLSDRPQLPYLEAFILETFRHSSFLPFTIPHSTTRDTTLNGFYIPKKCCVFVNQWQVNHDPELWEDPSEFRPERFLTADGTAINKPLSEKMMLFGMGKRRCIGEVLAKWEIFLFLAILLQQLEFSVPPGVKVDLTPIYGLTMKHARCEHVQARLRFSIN

[2] = AUC (0 to infinity) in Wistar rat at 5 mg/kg, po by cassette dosing; type: ADME, organism-based; parameters: time infinity, dose 5 mg/kg, route oral; conditions: plasma
Cytochrome P450 2C19 = Cytochrome P450 2C19 (Homo sapiens, UniProt P33261); assay: Inhibition of human recombinant CYP2C19 expressed in baculovirus-infected insect microsomes; type: ADME, Microsome
Cytochrome P450 2C19, sequence (P33261 whole entry): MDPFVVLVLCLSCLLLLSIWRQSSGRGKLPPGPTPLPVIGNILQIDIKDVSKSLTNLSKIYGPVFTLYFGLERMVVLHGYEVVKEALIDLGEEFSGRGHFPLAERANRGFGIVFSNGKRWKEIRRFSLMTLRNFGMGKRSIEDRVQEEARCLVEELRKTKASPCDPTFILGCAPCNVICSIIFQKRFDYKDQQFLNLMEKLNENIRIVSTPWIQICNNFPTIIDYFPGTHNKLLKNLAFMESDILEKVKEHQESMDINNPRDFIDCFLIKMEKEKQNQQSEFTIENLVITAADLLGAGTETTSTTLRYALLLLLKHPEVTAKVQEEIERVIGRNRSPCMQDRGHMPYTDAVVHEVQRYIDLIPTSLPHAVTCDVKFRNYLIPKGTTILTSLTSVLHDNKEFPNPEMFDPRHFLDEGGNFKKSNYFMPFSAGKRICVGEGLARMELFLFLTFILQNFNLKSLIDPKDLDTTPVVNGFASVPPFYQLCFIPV

[3] = Protein binding in human plasma at 3 uM after 1 hr; type: ADME, cell-free; conditions: read-out: PPB (converted)
[4] = Tmax in Wistar rat at 5 mg/kg, po by cassette dosing; type: ADME, organism-based; parameters: dose 5 mg/kg, route oral; conditions: in vivo
[5] = Protein binding in rat plasma at 3 uM after 1 hr; type: ADME, cell-free; conditions: read-out: PPB (converted)
[6] = Terminal half life in Wistar rat at 5 mg/kg, po by cassette dosing; type: ADME, organism-based; parameters: dose 5 mg/kg, route oral; conditions: in vivo, read-out: beta t1/2 (converted)
Cytochrome P450 2B6 = biological target: T4, Cytochrome P450 2B6 (Homo sapiens, UniProt P20813); assay: Inhibition of human recombinant CYP2B6 expressed in baculovirus-infected insect microsomes; type: ADME, Microsome
T4 sequence (P20813 whole entry): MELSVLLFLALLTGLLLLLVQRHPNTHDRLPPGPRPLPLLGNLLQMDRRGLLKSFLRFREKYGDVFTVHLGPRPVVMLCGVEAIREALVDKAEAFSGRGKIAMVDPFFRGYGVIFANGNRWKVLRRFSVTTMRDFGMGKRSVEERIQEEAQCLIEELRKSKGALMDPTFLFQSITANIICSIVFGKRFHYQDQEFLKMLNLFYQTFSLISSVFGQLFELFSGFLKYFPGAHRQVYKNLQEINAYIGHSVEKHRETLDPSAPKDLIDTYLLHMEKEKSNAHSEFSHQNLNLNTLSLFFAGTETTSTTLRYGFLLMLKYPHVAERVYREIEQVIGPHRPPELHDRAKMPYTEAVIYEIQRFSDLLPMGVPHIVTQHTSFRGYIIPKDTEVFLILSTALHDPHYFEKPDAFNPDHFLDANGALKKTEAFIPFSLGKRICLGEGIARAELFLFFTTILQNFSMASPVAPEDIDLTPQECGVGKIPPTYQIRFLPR

CYP1A2 = biological target: T5, CYP1A2 (Homo sapiens, UniProt P05177); assay: Inhibition of human recombinant CYP1A2 expressed in baculovirus-infected insect microsomes at 2 uM; type: ADME, Microsome
T5 sequence (P05177 whole entry): T3 sequence (P05177 whole entry)

[7] = biological target: T6, Cytochrome P450 11B1, mitochondrial (Homo sapiens, UniProt P15538)
T6 sequence (P15538 whole entry): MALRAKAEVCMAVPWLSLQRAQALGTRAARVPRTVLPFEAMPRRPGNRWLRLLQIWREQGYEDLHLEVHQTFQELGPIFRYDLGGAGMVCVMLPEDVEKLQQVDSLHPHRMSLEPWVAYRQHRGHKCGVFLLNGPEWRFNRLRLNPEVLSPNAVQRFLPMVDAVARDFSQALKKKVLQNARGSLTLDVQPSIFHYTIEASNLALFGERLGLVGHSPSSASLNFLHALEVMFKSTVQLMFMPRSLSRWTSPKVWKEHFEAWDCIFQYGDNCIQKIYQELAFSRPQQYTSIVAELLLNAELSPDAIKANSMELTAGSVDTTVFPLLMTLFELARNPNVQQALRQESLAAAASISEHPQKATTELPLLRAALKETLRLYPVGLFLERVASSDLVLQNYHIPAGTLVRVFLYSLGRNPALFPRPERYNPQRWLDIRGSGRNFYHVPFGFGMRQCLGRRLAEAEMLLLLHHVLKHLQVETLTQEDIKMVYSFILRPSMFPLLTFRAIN

Cytochrome P450 2D6 = Cytochrome P450 2D6 (Homo sapiens, UniProt P10635); assay: Inhibition of human recombinant CYP2D6 expressed in baculovirus-infected insect microsomes; type: ADME, Microsome
Cytochrome P450 2D6, sequence (P10635 whole entry): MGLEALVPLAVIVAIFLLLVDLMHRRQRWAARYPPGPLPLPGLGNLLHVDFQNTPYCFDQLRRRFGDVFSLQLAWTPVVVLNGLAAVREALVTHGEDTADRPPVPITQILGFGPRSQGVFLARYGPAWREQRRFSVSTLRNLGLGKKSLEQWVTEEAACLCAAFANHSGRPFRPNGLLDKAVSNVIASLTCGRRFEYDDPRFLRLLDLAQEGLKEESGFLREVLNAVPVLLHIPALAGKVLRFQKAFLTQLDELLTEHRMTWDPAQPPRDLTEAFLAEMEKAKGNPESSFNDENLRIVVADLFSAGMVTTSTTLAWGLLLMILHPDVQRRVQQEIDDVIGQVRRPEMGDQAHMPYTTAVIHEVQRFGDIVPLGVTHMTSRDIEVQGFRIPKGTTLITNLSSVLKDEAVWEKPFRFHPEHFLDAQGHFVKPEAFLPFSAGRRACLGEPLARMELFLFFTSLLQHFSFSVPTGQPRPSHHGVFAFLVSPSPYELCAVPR

CYP19 (aromatase) = biological target: T7, CYP19 (aromatase) (Homo sapiens, UniProt P11511); assay: Inhibition of human placental CYP19 at 500 nM; type: functional
T7 sequence (P11511 whole entry): T2 sequence (P11511 whole entry)

[8] = biological target: T8, Cytochrome P450 11B2, mitochondrial (Homo sapiens, UniProt P19099)
T8 sequence (P19099 whole entry): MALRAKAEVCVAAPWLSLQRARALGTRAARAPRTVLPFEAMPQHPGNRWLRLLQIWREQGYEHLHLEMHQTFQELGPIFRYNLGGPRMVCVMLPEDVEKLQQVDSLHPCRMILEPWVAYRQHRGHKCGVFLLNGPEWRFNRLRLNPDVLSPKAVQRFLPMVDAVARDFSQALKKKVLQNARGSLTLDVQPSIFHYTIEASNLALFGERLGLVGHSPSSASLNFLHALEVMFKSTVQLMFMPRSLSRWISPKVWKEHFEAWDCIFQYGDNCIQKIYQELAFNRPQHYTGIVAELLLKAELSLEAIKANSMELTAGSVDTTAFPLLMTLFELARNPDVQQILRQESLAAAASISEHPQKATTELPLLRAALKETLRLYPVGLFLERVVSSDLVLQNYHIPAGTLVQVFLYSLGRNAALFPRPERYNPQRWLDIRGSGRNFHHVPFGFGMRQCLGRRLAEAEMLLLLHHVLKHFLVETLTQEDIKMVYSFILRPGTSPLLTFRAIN

Homo sapiens = species: Homo sapiens; assay: Selectivity ratio, IC50 for human CYP11B1 to IC50 for human CYP11B2
[9] = biological target: T8, Cytochrome P450 11B2, mitochondrial; assay: Inhibition of human CYP11B2 expressed in hamster V79 MZh cells at 500 nM; type: cell-based; conditions: V79MZh
Cytochrome P450 3A4 = Cytochrome P450 3A4 (Homo sapiens, UniProt P08684); assay: Inhibition of human recombinant CYP3A4 expressed in baculovirus-infected insect microsomes; type: ADME, Microsome
Cytochrome P450 3A4, sequence (P08684 whole entry): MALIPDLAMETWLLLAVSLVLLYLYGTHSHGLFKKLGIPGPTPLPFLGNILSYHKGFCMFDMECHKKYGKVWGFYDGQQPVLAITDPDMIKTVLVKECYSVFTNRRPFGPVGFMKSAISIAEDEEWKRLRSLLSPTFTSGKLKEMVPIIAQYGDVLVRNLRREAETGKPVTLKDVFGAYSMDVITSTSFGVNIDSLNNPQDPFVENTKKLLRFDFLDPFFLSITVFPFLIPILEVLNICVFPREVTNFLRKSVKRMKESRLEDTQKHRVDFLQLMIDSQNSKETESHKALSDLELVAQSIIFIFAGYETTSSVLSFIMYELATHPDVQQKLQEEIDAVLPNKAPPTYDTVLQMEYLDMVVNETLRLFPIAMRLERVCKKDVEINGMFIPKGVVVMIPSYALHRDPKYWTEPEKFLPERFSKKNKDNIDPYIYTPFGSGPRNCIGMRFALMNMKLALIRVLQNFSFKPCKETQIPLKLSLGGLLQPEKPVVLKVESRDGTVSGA

[10] = Cmax in Wistar rat at 25 mg/kg, po; type: ADME, organism-based; parameters: dose 25 mg/kg, route oral; conditions: in vivo
[11] = Oral bioavailability in Wistar rat at 25 mg/kg; conditions: in vivo
[12] = Terminal half life in Wistar rat at 25 mg/kg, po; type: ADME, organism-based; parameters: dose 25 mg/kg, route oral; conditions: in vivo, read-out: beta t1/2 (converted)
[13] = Terminal half life in Wistar rat at 1 mg/kg, iv; type: ADME, organism-based; parameters: dose 1 mg/kg, route intravenous; conditions: in vivo, read-out: beta t1/2 (converted)
[14] = Tmax in Wistar rat at 25 mg/kg, po; type: ADME, organism-based; parameters: dose 25 mg/kg, route oral; conditions: in vivo
[15] = AUC (0 to infinity) in Wistar rat at 1 mg/kg, iv; type: ADME, organism-based; parameters: time infinity, dose 1 mg/kg, route intravenous; conditions: plasma
[16] = AUC (0 to infinity) in Wistar rat at 25 mg/kg, po; type: ADME, organism-based; parameters: time infinity, dose 25 mg/kg, route oral; conditions: plasma

inhibition at 2.5 µM (CYP17) | IC50 (Aromatase) | Cmax [1] | IC50 (Cytochrome P450 2C9) | IC50 (Cytochrome P450 1A2) | AUC(0-inf) [2] | IC50 (Cytochrome P450 2C19; read-out: IC50) | fraction unbound at 1 h, 3 µM [3] | Tmax [4] | fraction unbound at 1 h, 3 µM [5] | half-life [6] | IC50 (Cytochrome P450 2B6) | inhibition at 2 µM (CYP1A2) | IC50 (Cytochrome P450 2D6) | inhibition at 0.5 µM (CYP19 (aromatase)) | IC50 [8] | IC50 (Cytochrome P450 3A4) | Structure (SMILES) | further results
72% | 0.6 µM | – | – | – | – | – | – | – | – | – | – | – | – | – | – | – | COc1ccc2cc(-c3cccnc3)ccc2c1 | –
– | – | 300 ng/mL | 123 µM | 1.55 µM | 3180 ng·h/mL | 147 µM | 0.78 | 4 h | 0.76 | 2.4 h | < 50 µM | 57% | – | – | – | – | O=C1CCc2cc(-c3cccnc3)ccc21 | –
73% | > 36 µM | – | – | – | – | – | – | – | – | – | – | – | – | – | – | – | N#Cc1ccc2cc(-c3cccnc3)ccc2c1 | –
8% | – | 86 ng/mL | 125 µM | 1.79 µM | 659 ng·h/mL | 122 µM | – | 6 h | – | 2.3 h | < 50 µM | 53% | < 200 µM | 54% | 0.0026 µM | – | CN1C(=O)CCc2cc(-c3cccnc3)ccc21 | IC50 [7]: 0.742 µM
44% | – | – | 16.3 µM | – | – | – | – | – | – | – | 47.4 µM | 80% | < 200 µM | 22% | 0.0033 µM | 12.2 µM | COC1CCc2cc(-c3cccnc3)ccc2C1 (stereo unspecified) | IC50 (Cytochrome P450 2C19): < 200 µM; Ratio IC50 (Homo sapiens): 347; inhibition at 0.5 µM [9]: 97%
41% | – | 261 ng/mL | 58.9 µM | 1.95 µM | 1750 ng·h/mL | – | 0.39 | 4 h | 0.4 | 3.8 h | < 50 µM | 50% | – | 21% | – | 127 µM | O=C1CCc2cc(-c3cccnc3)ccc2N1 | Cmax [10]: 1540 ng/mL; bioavailability [11]: 71%; half-life [12]: 1.2 h; IC50 (Cytochrome P450 2D6; read-out: IC50): 171 µM; half-life [13]: 1.7 h; Tmax [14]: 1 h; AUC(0-inf) [15]: 270 ng·h/mL; AUC(0-inf) [16]: 4760 ng·h/mL
